Experimental data reported in article PMC10285648, “iTAG an optimized IMiD-induced degron for targeted protein degradation in human and murine cells” (iScience, 2023).

Assays:
cMYC-EGFP-DCD2 = assay: Flow cytometry of EGFP signal, cMYC-EGFP-DCD2 in HMEC; assay type: cell-based, human; details: 10uM, 4h
Source text: To systematically delineate the optimal DCD/degrader combination for targeted protein degradation, we undertook a matrix approach evaluating all 23 DCD tags against 6 small molecule degraders. First, we fused the DCD tags with Enhanced Green Fluorescent Protein (EGFP) and a target protein of interest, focusing initially on the proto-oncogene cMYC (Figure 1A). cMYC function has been extensively studied and downstream perturbations of cMYC loss are well characterised,[29]^,[30]^,[31] providing a good reference to test the iTAG system. […]
Figure 1 Design and experimental evaluation of the DCD tags (A) Representation of the experimental pipeline used to evaluate the different DCD constructs. […] Median EGFP intensity was measured in each condition using flow cytometry (3 independent experiments, normalized to the control and represented as mean ± SD). […] Target loss was evaluated either by measuring EGFP median intensity using flow cytometry or western blotting for cMYC protein (3 independent experiments, normalized to the control and represented as mean ± SD). […] Target loss was evaluated as in (D) (3 independent experiments, normalized to the control and represented as mean ± SD). […]

cMYC-EGFP-DCD19 = assay: Flow cytometry of EGFP signal, cMYC-EGFP-DCD19 in HMEC; assay type: cell-based, human; details: 10uM, 4h
Source text: (§1) To systematically delineate the optimal DCD/degrader combination for targeted protein degradation, we undertook a matrix approach evaluating all 23 DCD tags against 6 small molecule degraders. […] To control for any potential off-target effects of the IMiD/CeLMOD agents that could indirectly affect the target of interest, we designed controls in which the specific DCD and the EGFP sequences were interspaced by a P2A ribosomal “skipping” sequence,[32] leading to separate translation of the DCD and the target protein (Figure 1A). These constructs were then inserted into a doxycycline-inducible lentiviral vector system and stably expressed in hTERT immortalized human mammary epithelial cells (HMEC), a suitable model to assess the functional consequences of cMYC degradation. cMYC was tagged at the C-terminus end for the initial screening experiments.
(§2) Figure 1 Design and experimental evaluation of the DCD tags (A) Representation of the experimental pipeline used to evaluate the different DCD constructs. […] Median EGFP intensity was measured in each condition using flow cytometry (3 independent experiments, normalized to the control and represented as mean ± SD). […] The protein lysates were probed for cMYC levels using western blotting. […] Target loss was evaluated either by measuring EGFP median intensity using flow cytometry or western blotting for cMYC protein (3 independent experiments, normalized to the control and represented as mean ± SD). […] Target loss was evaluated as in (D) (3 independent experiments, normalized to the control and represented as mean ± SD). […] Protein lysates were collected and probed for cMYC and p21 using western blotting. […] Protein lysates were collected and probed for cMYC and p21 using western blotting. […] These were left out as controls with no test substance.
(§3) Following degrader treatment cells were collected and DAPI was added to the cell suspension at 1 μg/mL to allow the exclusion of dead cells. EGFP signal was measured using BD LSR II flow cytometer (BD Biosciences). FlowJo 10 Software (FlowJo) was used for data processing.

cMYC-EGFP-DCD23 = assay: Degradation of cMYC-EGFP-DCD23 in HMEC (flow cytometry, western blotting); assay type: cell-based, human; details: EGFP cellular degradation data for the DCD23, related to Figure 1 (10uM, 4h)
Source text: as §1, §2, §3
Cells were lysed with SDS lysis buffer (2% SDS, 10% Glycerol, 50mM Tris pH 6.8) and boiled at 95°C for 30min. Protein concentration was measured using Pierce BCA Protein Assay Kit (ThermoFischer) following manufacturer’s recommendations. Samples were ran in NuPAGETM 10% Bis-Tris Midi electrophoresis gels (Invitrogen) using NuPAGETM MES SDS running buffer (ThermoFischer Scientific).
For western blotting membranes were blocked in a solution of 5% (w/v) bovine serum albumin (BSA; Sigma-Aldrich) dissolved in TBS-0.1% Tween 20 (Sigma-Aldrich) then incubated at 4°C overnight with the primary antibodies diluted in 5% (w/v) BSA/TBS-T. The membranes where then washed and incubated with anti-mouse and/or anti-rabbit secondary antibodies (LI-COR Biosciences) for 2h at RT diluted in 5% (w/v) BSA/TBS-T then washed and imaged using the LI-COR Odyssey (LI-COR Biosciences). Images were analyzed using Image Studio Lite software (LI-COR Biosciences).

[1] = system: HMEC, HEK293T, MDA-MB-231, Kelly cells; assay: Cell viability assay (CellTiter-Blue); assay type: cell-based, human; details: 5 days treatment
Experimental: By endpoint, CellTiter-Blue reagent (Promega) was added to each well, incubated for 3 h at 37°C and absorbance was measured with a plate reader at 570nm. Average background absorbance value was subtracted from all readings when plotting the viability curve.

CRBN/DDB1 complex = biological target: T1, CRBN/DDB1 complex (Homo sapiens, UniProt Q96SW2); assay: IMiD-based fluorescence polarisation assay; assay type: binding; details: displacement of Sulfo-Cy5 IMiD probe (5 nM), 80 nM CRBN/DDB1; read-out: FP IC50
T1 construct: WT full length CRBN/DDB1 complex was added; made in house; host or cells: Sf9 insect cells (baculovirus)
T1 sequence (Q96SW2 whole entry): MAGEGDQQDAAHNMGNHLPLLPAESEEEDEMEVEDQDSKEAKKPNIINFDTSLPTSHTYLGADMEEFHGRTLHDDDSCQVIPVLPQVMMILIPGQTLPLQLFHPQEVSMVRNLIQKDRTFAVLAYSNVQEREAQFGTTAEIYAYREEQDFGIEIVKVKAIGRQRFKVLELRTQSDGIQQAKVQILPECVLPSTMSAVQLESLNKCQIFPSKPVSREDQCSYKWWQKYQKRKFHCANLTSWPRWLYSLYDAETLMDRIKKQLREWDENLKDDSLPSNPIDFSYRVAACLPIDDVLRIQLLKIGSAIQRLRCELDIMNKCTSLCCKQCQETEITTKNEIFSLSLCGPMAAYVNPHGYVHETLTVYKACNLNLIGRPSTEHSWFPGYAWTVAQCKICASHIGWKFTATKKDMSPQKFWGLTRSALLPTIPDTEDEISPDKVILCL
T1 sequence (Q16531 whole entry partner): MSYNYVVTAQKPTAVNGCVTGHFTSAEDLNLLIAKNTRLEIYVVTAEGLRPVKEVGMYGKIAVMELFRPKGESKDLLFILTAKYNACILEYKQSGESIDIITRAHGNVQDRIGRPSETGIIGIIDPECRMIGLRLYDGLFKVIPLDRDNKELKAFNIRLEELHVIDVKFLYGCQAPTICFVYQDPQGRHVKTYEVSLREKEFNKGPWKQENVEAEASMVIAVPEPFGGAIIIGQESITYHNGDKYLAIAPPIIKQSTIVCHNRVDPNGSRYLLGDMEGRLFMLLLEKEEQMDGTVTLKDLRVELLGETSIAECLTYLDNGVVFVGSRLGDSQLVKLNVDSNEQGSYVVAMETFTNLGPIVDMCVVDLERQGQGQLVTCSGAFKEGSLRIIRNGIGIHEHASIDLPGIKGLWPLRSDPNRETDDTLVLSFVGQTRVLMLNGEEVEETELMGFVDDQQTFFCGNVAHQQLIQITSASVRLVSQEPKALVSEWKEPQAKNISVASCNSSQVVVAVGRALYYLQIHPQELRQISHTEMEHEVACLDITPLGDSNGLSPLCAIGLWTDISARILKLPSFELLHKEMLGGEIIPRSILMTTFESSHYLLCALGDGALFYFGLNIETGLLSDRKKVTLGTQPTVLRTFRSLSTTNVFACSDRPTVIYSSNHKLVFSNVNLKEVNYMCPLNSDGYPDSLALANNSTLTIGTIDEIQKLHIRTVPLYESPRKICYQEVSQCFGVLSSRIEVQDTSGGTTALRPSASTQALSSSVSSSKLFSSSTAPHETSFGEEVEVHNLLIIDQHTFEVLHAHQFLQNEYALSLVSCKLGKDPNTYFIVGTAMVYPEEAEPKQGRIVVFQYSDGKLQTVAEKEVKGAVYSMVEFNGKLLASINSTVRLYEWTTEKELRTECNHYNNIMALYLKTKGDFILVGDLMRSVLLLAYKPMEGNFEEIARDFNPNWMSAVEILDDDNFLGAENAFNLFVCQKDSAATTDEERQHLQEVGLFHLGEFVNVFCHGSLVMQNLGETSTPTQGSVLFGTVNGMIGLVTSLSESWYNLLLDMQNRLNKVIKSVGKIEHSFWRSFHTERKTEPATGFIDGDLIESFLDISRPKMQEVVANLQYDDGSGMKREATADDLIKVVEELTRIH
Experimental: First, we wanted to confirm that the IMiD/CELMoDs used in our study were effectively binding to CRBN and to estimate their binding affinities. […] WT full length CRBN/DDB1 complex was added with a Tempest liquid handler (Formulatrix, USA) to all wells to a final concentration of 80 nM, except for low controls where WT CRBN was substituted with mutant [MUT]-[MUT] CRBN (mutant unable to bind the probe). The Echo was also used to add 5 nM final concentration of Sulfo-Cy5 fluorescent IMiD-based probe (Figure S6A) to each well. Plates were sealed, centrifuged at 200 g for 1 min and stored overnight at 4°C. Fluorescence Polarization and total fluorescence were read using a PHERAstar FSX plate reader (BMG Labtech, Germany).

CT26 cells = assay: Quantitative multiplexed proteomics of CT26 cells treated with thalidomide derivatives; assay type: cell-based, mouse; details: CT26, 10uM, 24h
Experimental: After showing that iTAG was active in mouse cells, we explored whether more potential degrons were active in the murine context. […]2216[50] and profiled the cellular proteomes using quantitative multiplexed proteomics. […] Data are plotted as Log2 fold change relative to DMSO versus Log10 of p value. (B) Proteome of CT26 CRBN KO cells treated with 10uM of FPFT2216 for 24h analyzed and plotted as in (A). (C) HEK293T, CT26, AT3 and 4434 cells treated with 10uM of FPFT2216 for 24h in presence of absence of MLN4924. […] were analyzed using western blotting. (D) Structural representation of PDE6D with the critical […] highlighted in red. (E) CT26, AT3 and 4434 cells transiently expressing WT or […] mutant Flag-PDE6D treated with 10uM of FPFT2216 for 16h. (F) Docking model for FPFT-2216 (in magenta) in the binding site of mouse CRBN (in orange). H-bond interactions are shown as cyan dashes. (G) Binding model for the ternary complex formed by mouse CRBN (in orange), mouse PDE6D (in cyan) and FPFT-2216 (in magenta), showing the […] loop close to the molecular glue. Samples for quantitative proteomics were prepared using the […] workflow.[60] Briefly, the cell pellets were lysed in a buffer containing 150 μL 0.1 M triethylammonium bicarbonate (TEAB), 1% sodium deoxycholate (SDC), 10% isopropanol, 50mM NaCl, 5 mM tris-2-carboxyethyl phosphine (TCEP), 10 mM iodoacetamide (IAA), universal nuclease, and supplemented with protease and phosphatase inhibitors. Samples were bath sonicated for 5 min, incubated at RT for 45 min and protein concentration was measured with the Bradford Protein Assay (Biorad) according to manufacturer instructions. Aliquots containing 30 μg of total protein were used for protein digestion. The resultant peptides were labeled with a tandem mass tag (TMTpro) multiplex reagent vial (Thermo Scientific) according to the manufacturer instructions. All the TMT-labelled samples were combined in equal amounts to a single tube. The TMT-peptide mixture was acidified with 1% formic acid and the precipitated SDC was removed by centrifugation. The sample was then dried with a centrifugal vacuum concentrator. LC-MS analysis was performed on the Dionex Ultimate 3000 UHPLC system coupled with the Orbitrap Lumos mass spectrometer (Thermo Scientific). Samples were analyzed with the EASY-Spray C18 capillary column (75 μm × 50 cm, 2 μm) at 50°C. […] MS3 quantification was obtained with higher-energy collisional dissociation (HCD) fragmentation of the top 5 most abundant CID fragments isolated with synchronous precursor selection (SPS). […] The SEQUEST-HT search engine was used to analyze the acquired mass spectra in Proteome Discoverer 2.4 (Thermo Scientific) for protein identification and quantification. […]

N-terminally tagged EGFP = assay: Flow cytometry of N-terminally tagged EGFP in SUM159 (iTAG, SD, dTAG); assay type: cell-based, human; details: SUM159, 4h, normalized values; dTAG-13 for FKBP12 F36V, CC220 for SD and iTAG
Experimental: The protein lysates were probed for HA using western blotting. […] The protein lysates were probed for HA using western blotting. […] Median EGFP intensity was measured in each condition using flow cytometry. (3 independent experiments, represented as mean ± SD).
As we were finalizing our study on iTAG, a similar IMiD based degron was publish by the Ebert group.[28] The SuperDegron (SD) a 60 amino acid tag based on a chimera of Aiolos/ZFP91 was used to generate degradable chimeric antigen receptors (CAR).[28]
For the pHAGE-PGK constructs: DCD23, SuperDegron and FKBP12^F36V were separately cloned into a pHAGE-PGK DEST backbone. cDNA encoding the indicated protein was then cloned from pENTR221 into the pHAGE-PGK-DCD23, pHAGE-PGK-SuperDegron or pHAGE-PGK-FKBPF36V DEST vector using Gateway cloning. SUM159 cells were transduced with the indicated lentivirus and selected with puromycin.

Cc1ccc(NC(=O)NCc2ccc3c(c2)CN(C2CCC(=O)NC2=O)C3=O)cc1Cl (stereo not drawn) [CC885]
change of EGFP signal (cMYC-EGFP-DCD2): strong decrease in EGFP signal | loss of cMYC-EGFP signal (cMYC-EGFP-DCD19): robust loss of cMYC-EGFP signal | Degradation as Log2 FC relative to DMSO (cMYC-EGFP-DCD23): -1.27 Log2 FC | cellular toxicity [1]: significant cellular toxicity | IC50 (CRBN/DDB1 complex): 107 nM

O=C1CCC(N2Cc3cc(CNC(=O)C(F)(F)c4ccc(Cl)cc4)ccc3C2=O)C(=O)N1 (stereo not drawn) [CC90009]
effect on cellular proteome (CT26 cells): no impact

O=C1CCC(N2C(=O)c3ccc(NS(=O)(=O)c4ccccc4OC(F)(F)F)cc3C2=O)C(=O)N1 (stereo not drawn) [StJude6989]
effect on cellular proteome (CT26 cells): no impact

FKBP12^[F36V]: mutant FKBP12 protein tag of the dTAG system, degraded with dTAG-13
DC50 (N-terminally tagged EGFP): 0.38 nM | DCmax (N-terminally tagged EGFP): 95%
